Laboratory results: ChEMBL document CHEMBL1144314, “Synthesis and antibacterial activity of 1-[1,2,4-triazol-3-yl] and 1-[1,3,4-thiadiazol-2-yl]-3-methylthio-6,7-dihydrobenzo[c]thiophen-4(5H)ones” (2005)

Experiments:
Type in all cases: functional
Aspergillus niger = assay: Antimicrobial activity against Aspergillus niger was determined
Bacillus subtilis = assay: Antimicrobial activity of the compound against Bacillus subtilis was determined
[1] = system: Staphylococcus epidermidis; assay: Antimicrobial activity against Staphylococcus epidermidis was determined
Staphylococcus aureus = assay: Antimicrobial activity of the compound against Staphylococcus aureus was determined
Pseudomonas aeruginosa = assay: Antimicrobial activity against Pseudomonas aeruginosa was determined
Bacillus cereus = assay: Antimicrobial activity against Bacillus cereus was determined
Candida albicans = assay: Antimicrobial activity against Candida albicans was determined

| Compound | Zone of inhibition (Aspergillus niger) [mm] | Zone of inhibition (Bacillus subtilis) [mm] | Zone of inhibition [1] [mm] | Zone of inhibition (Staphylococcus aureus) [mm] | Zone of inhibition (Candida albicans) [mm] | other results |
| --- | --- | --- | --- | --- | --- | --- |
| CSc1sc(-c2nnc(NC3CCCCC3)s2)c2c1C(=O)CCC2 | 12 | – | – | – | – | – |
| CCCCn1c(S)nnc1-c1sc(SC)c2c1CCCC2=O | – | 14 | 26 | 17 | – | – |
| CSc1sc(-c2nnc(S)n2-c2ccc([N+](=O)[O-])cc2)c2c1C(=O)CCC2 | – | 23 | 25 | 18 | – | Zone of inhibition (Pseudomonas aeruginosa): 14 mm |
| CSc1sc(-c2nnc(SC)n2-c2ccc([N+](=O)[O-])cc2)c2c1C(=O)CCC2 | – | 21 | 24 | 18 | – | Zone of inhibition (Pseudomonas aeruginosa): 14 mm; Zone of inhibition (Bacillus cereus): 12 mm |
| O=C1CN(/N=C/c2ccc([N+](=O)[O-])o2)C(=O)N1 [NITROFURANTOIN] | – | 18 | – | 21 | – | Zone of inhibition (Pseudomonas aeruginosa): 21 mm; Zone of inhibition (Bacillus cereus): 20 mm |
| CCCCNc1nnc(-c2sc(SC)c3c2CCCC3=O)s1 | 9 | 22 | – | – | 11 | – |
| COc1ccc(-n2c(S)nnc2-c2sc(SC)c3c2CCCC3=O)cc1 | – | 11 | – | – | – | – |
| C[C@@H]1[C@H](O)[C@@H](C)/C=C/C=C/C=C/C=C/C=C/C=C/C=C/[C@H](O[C@@H]2O[C@H](C)[C@@H](O)[C@H](N)[C@@H]2O)C[C@@H]2O[C@](O)(C[C@@H](O)C[C@@H](O)[C@H](O)CC[C@@H](O)C[C@@H](O)CC(=O)O[C@H]1C)C[C@H](O)[C@H]2C(=O)O [AMPHOTERICIN B] | 22 | – | – | – | 22 | – |
| CCNc1nnc(-c2sc(SC)c3c2CCCC3=O)s1 | 8 | 20 | – | – | 13 | – |
| GENTAMICIN | – | – | – | – | – | inhibition zone (IZ) (Bacillus subtilis): 30 mm; inhibition zone (IZ) [1]: 20 mm; inhibition zone (IZ) (Bacillus cereus): 28 mm |
| CCCCn1c(SC)nnc1-c1sc(SC)c2c1CCCC2=O | – | 16 | 26 | 17 | – | Zone of inhibition (Bacillus cereus): 16 mm |
| CSc1sc(-c2nnc(Nc3ccc([N+](=O)[O-])cc3)s2)c2c1C(=O)CCC2 | 10 | 33 | – | – | 14 | – |
| CNc1nnc(-c2sc(SC)c3c2CCCC3=O)s1 | 11 | 28 | – | – | 12 | – |
